In US7045513B1, “DHEA composition and method” (priority 1999, dated 2006):

Assays:
[1] = 14-day stress study of DHEA forms I and II, monitored by XRPD; type: physicochemical; settings: for Stability (summary): ambient conditions and heat at non-saturating humidity; for Stability to solid form conversion: ambient temperature and 50° C., two weeks, RH as high as 84%
Description: Little weight gain (<0.8%) is observed in these samples. (Weight losses observed at 50° C. could be due to loss of residual solvent, sublimation of sample, and/or thermal degradation.)
X-Ray Powder Diffraction (XRPD). XRPD analyses were carried out on a Siemens D-500 X-ray Powder Diffractometer-Kristaloflex or a Shimadzu XRD-6000 X-ray powder diffractometer using Cu Kα radiation (1.5406 Å).
The Siemens instrument was equipped with an IBM-compatible interface and utilized DIFFRAC AT software (SOCABIM, 1994). Slits I and II were set at 1° and the radiation was electronically filtered by a Kevex Psi Peltier cooled silicon detector with slits III at 1° and IV at 0.15°. A continuous theta-two theta scan at 6°/min (0.4 sec/0.04° step) from 4 to 40°2θ was used. A silicon standard was analyzed each day to check the instrument alignment. Each sample was prepared by pressing a small amount of the powder onto a zero-background quartz-in-aluminum sample holder.
The Shimadzu instrument was equipped with a fine-focus X-ray tube. The tube power was set at 40 kV, 40 mA. The divergence and scattering slits were set at 1° and the receiving slit was set at 0.15 mm. Diffracted radiation was detected by an NaI scintillation detector. A theta-two theta continuous scan at 3°/min (0.4 sec/0.02° step) from 4 to 40°2θ was used. A silicon standard was analyzed each day to check the instrument alignment, and an alumina standard was analyzed each day to check the X-ray tube output. Each sample was prepared for analysis by pressing it with a spatula onto a glass or quartz sample holder.

[2] = Solid form stability of form I after 1, 2, 3 and 6 months, by 13C-SSNMR; type: physicochemical
Description: Solid State NMR Method (SSNMR). SSNMR spectra were obtained on a General Electric Omega PSG, 100 MHz spectrometer using about 50 mg of sample in a 5-mm diameter zirconia rotor. High-power proton decoupling and cross-polarization with magic-angle spinning at approximately 5 kHz were used. The magic angle was adjusted using the Br signal of KBr by detecting the side bands as described by Frye and Maciel, 1982. The chemical shifts were referenced externally to the CH resonance of adamantane at 29.50 ppm. Curve fitting of selected peaks for integration was performed as described by MacDonald (1980). The following peaks were used to measure forms I, II and VI: sum of peaks at 118.8 and 120.3 ppm (form I), peak at 119.8 ppm (form II), and peak at 118.5 ppm (form VI).

[3] = Single dose pharmacokinetic study of orally administered DHEA formulations; type: in vivo, human; settings: conclusion drawn from the single dose study
Description: Example 2 describes a study in which 34 healthy postmenopausal women were administered orally one of three formulations of DHEA, each prepared from commercially available DHEA, in capsular form. The formulations were administered in single dosages of four opaque, size 2 capsules, each capsules containing 50 mg DHEA, 152 mg lactose (169 mg for formulation 3), 108 mg corn starch, and 3 mg magnesium stearate.
Blood samples were collected prior to and at various times after administration, and the levels of DHEA and DHEA-S were measured by immunoassay. […]
AUC (area under curve) is an indicator of extent of absorption; Cmax and Tmax are indicators of rate of absorption. Serum DHEA concentrations for all samples were above the assay limit of quantification. […]
DHEA levels were determined by radioimmunoassay (RIA) at Endocrine Sciences Inc., after non-polar solvent extraction. […] Internal assay controls were monitored via control charts. […]. […]
Adjusted serum levels were calculated by subtracting baseline (average of −0.5 hr and 0 hr serum levels). […] For DHEA and DHEA-S, the peak serum concentration (Cmax) and time to peak concentration (Tmax) were assessed from the concentration-time data. […]

[4] = 25° C. (ambient temperature), 95% RH

Compound	Final Form (by XRPD), 14 days [1, 4]	Wt change, % (14 days) ([1]; 25° C., 58% RH, 14 days) [%]	Wt change, % (14 days) ([1]; 25° C., 75% RH, 14 days)	Wt change, % (14 days) ([1]; 25° C., 84% RH, 14 days)	Wt change, % (14 days) ([1]; 25° C., 95% RH, 14 days)	Wt change, % (14 days) ([1]; 50° C., 58% RH, 14 days) [%]	Wt change, % (14 days) ([1]; 50° C., 75% RH, 14 days) [%]	Wt change, % (14 days) ([1]; 50° C., 84% RH, 14 days) [%]	Final Form (by XRPD), 14 days ([1]; 50° C., 95% RH)	Wt change, % (14 days) ([1]; 50° C., 95% RH, 14 days)	Stability (summary) [1]	Stability to solid form conversion [1]	Overall stability, form I compared with form II ([1]; summary of the stability studies)	Final Form (by 13C-SSNMR), 1, 2, 3, and 6 months ([2]; 25° C., 58% RH)	Final Form (by 13C-SSNMR), 1, 2, 3, and 6 months ([2]; 40° C. (footnote b), 75% RH)	Bioavailability when administered orally [3]	Final Form (by XRPD), 14 days ([1]; 50° C., 75% RH)	Final Form (by XRPD), 14 days ([1]; 50° C., 84% RH)	Solid form conversion ([1]; 50°, RH of 75% or greater, 14 days)
C[C@]12CC[C@H](O)CC1=CC[C@@H]1[C@@H]2CC[C@]2(C)C(=O)CC[C@@H]12 [Form I, dehydroepiandrosterone]	stable	−0.6	+0.3%	+0.1%	+0.2%	−1	−3	−2	converted to S2	+1%	stable	stable to solid form conversion	greater overall stability	remained stable to solid form conversion	remained stable to solid form conversion	high bioavailability			
C[C@]12CC[C@H](O)CC1=CC[C@@H]1[C@@H]2CC[C@]2(C)C(=O)CC[C@@H]12 [Form II, dehydroepiandrosterone]	converted to S2	0	−0.3%	+0.2%	+5%	−1	−2	−0.3	II + S1	+1%	stable	stable to solid form conversion				high bioavailability	II + S1	II + S1	partially converted to S1
